Patent US9586949B2, “Aza-heteroaryl compounds as PI3K-gamma inhibitors” (Incyte Corporation, priority 2015, dated 2017)

Columns and labels:
[1] = tested on: Phosphorylated Ribosomal Protein S6 (RPS6); assay: THP-1 RPS6 ELISA Assay; format: cell-based, Human; conditions: THP-1 cells, serum starved, 2 hours with compound, 10 nM MCP-1 for 15 minutes; read-out: THP p-RPS6 ELISA IC50
Experimental: To measure the Phosphorylated Ribosomal Protein S6 (RPS6) in cell lysates, THP-1 cells (Human Acute Monocytic Leukemia) are purchased from ATCC (Manassas, Va.) and maintained in RPMI with 10% FBS (Gibco/Life Technologies, Carlsbad, Calif.). For the assay, THP-1 cells are serum starved overnight in RPMI, then plated in RPMI (2×10^5 cells/well in 90 μL) into 96-well flat-bottom tissue culture treated plates (Corning, Corning, N.Y.), in the presence or absence of a concentration range of test compounds. Covered plates are incubated for 2 hours at 37° C., 5% CO2 then treated with or without 10 nM MCP-1 (MYBioSource, San Diego, Calif.) for 15 minutes at 37° C., 5% CO2. Plates are centrifuged at 1600 RPM and supernatants are removed. Cells are lysed in Lysis Buffer (Cell Signaling, Danvers, Mass.) with Protease Inhibitor (Calbiochem/EMD, Germany), PMSF (Sigma, St Louis Mo.), HALTS (Thermo Fisher, Rockford, Ill.) for 30 min on wet ice. Cell lysates are frozen at −80° C. before testing. The lysates are tested in the Human/Mouse/Rat Phospho-RPS6 ELISA (R&D Systems, Inc. Minn, Minn.). The plate is measured using a microplate reader (SpectraMax M5-Molecular Devices, LLC Sunnyvale, Calif.) set to 450 nm with a wavelength correction of 540. […]

[2] = target: PI3Kδ (p110δ/p85α) Recombinant Human Protein (Homo sapiens (Human), UniProt O00329); assay: PI3Kδ Scintillation Proximity Assay; format: biochemical; conditions: 20 μM PIP2, 2 μM ATP, 3.4 nM PI3Kδ, 120 min; read-out: PI3K-delta SPA IC50
Chain of PI3Kδ (p110δ/p85α) Recombinant Human Protein (O00329 whole entry): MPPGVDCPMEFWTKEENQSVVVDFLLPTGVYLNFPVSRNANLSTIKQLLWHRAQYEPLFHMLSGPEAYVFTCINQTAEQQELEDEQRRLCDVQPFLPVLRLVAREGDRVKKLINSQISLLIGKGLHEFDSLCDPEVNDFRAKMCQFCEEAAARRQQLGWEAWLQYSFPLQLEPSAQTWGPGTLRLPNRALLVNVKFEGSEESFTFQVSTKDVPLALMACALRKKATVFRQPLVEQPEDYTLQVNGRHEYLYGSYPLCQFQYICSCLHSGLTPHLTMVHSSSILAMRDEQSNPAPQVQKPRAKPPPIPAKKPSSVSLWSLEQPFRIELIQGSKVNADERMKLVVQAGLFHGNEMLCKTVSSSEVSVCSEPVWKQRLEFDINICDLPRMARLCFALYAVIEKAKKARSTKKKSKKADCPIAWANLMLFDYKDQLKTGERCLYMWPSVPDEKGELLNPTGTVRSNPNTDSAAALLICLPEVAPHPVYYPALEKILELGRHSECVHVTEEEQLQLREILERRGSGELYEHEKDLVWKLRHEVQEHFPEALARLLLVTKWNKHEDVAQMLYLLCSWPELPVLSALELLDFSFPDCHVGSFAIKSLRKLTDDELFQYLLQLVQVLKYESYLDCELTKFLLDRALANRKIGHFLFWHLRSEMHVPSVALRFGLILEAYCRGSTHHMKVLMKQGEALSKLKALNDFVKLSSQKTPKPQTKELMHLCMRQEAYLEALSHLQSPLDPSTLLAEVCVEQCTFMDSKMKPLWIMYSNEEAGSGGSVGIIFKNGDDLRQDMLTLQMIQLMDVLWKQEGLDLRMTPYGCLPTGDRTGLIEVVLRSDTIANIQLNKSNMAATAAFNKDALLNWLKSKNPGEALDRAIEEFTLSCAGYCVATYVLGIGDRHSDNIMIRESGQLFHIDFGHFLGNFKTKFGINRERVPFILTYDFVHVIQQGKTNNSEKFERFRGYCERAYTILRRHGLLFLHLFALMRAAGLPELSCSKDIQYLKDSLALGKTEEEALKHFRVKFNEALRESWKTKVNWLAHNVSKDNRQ
Chain of PI3Kδ (p110δ/p85α) Recombinant Human Protein (P27986 whole entry partner): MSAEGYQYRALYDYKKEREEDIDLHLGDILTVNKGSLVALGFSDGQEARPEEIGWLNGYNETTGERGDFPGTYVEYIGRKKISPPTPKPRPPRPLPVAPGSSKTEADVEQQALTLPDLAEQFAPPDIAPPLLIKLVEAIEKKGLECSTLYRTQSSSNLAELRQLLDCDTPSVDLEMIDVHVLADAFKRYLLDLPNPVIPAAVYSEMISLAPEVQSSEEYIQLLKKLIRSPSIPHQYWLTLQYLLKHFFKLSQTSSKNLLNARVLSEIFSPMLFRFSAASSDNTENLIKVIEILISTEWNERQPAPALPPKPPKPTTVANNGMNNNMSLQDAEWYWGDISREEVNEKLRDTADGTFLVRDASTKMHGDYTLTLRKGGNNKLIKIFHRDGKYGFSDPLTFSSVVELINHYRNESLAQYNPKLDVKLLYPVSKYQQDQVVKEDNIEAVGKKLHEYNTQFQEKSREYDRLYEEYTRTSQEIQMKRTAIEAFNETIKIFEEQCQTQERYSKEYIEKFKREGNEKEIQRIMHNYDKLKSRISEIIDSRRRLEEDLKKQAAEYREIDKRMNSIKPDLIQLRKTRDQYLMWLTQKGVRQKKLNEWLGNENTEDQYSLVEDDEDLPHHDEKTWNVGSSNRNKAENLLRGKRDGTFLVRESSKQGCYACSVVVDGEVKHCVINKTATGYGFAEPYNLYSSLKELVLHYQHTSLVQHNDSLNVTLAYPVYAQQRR

IC50 [1]: ≥ 5 µM | IC50 [2]: < 1 µM
Substance: N-(5-(2-(1H- Benzo[d]imidazol-2- yl)benzo[d]oxazol- 6-yl)pyridin-3- yl)ethanesulfonamide [Example 18]
